Patent publication US20040048900A1, “Nicotine and/or nicotine agonists for the treatment of general anesthetic effects and side effects” (priority 2002, published 2004)
Where “and” joins values, the source holds several entries; their conditions need not be identical. Identical values can stand only once. Entries after “also recorded” stand apart in the source; their conditions may differ.

Columns and labels:
[1] = system: analgesic action of nicotine; details: Bitner, 1998; cited from earlier work
female mice = experiment: MAC and LORR of isoflurane; format: in vivo
Excerpt: Isoflurane causes hyperalgesia in female mice. […] Increased HPWL occurred at concentrations above 0.86% that were associated with sedation. MAC in these animals was 1.5±0.1% and LORR (mean partial pressures bracketing postural response and lack of response to placing the animal in a supine position) occurred at 0.59 +0.2% isoflurane.
5-28 mice were studied per group.

[2] = molecular target: T1, human α4β2 nAChRs expressed in Xenopus oocytes (Homo sapiens, UniProt P17787+P43681); experiment: Two-microelectrode voltage clamp of ACh-activated currents in Xenopus oocytes; format: cell-based
T1 construct: expressed in transfected cells; host or cells: Xenopus laevis oocytes injected with cRNA (1:1 α4 to β2)
Method: The human α4 and β2 type nAChRs were in a pSP64 expression vector. Standard techniques were used to linearize the vectors and use them as templates to make cRNA using SP6 as the polymerase. The human nicotinic clones were a gift from Dr. Jon Lindstrom, Ph.D. (Department of Neuroscience, University of Pennsylvania, Philadelphia, Pa.).
Xenopus laevis oocytes were removed from the females and defolliculated with collagenase. After the oocytes rested for 24 hours in L-15 oocyte medium, about 10 ng of a 1:1 ratio of α4 to β2 cRNA were injected into individual oocytes. A manual injector was used for this process (Nanoject; Drummond Scientific, Broomall, Pa.). The oocytes were incubated for 2-5 days in ND-96 medium (NaCl 96 mM, KCl 2 mM, MgCl2 1 mM, CaCl2 H2O 1.8 mM, HEPES 5 mM, Na-pyruvate 2.5 mM, theophylline 0.5 mM, and 10mg/L of gentamicin, adjusted to pH 7.5).
Whole oocytes were used to record currents using a Gene-Clamp 500 two-microelectrode voltage-clamp amplifier with an active ground (Axon Instruments, Inc., Foster, Cailf.). The recording electrodes were pulled from glass capillary tubing (Drummond, Broomall, Pa.) to obtain a resistance between 1 and 5 MΩ and filled with 3M KCl. Ba^2 Ringer's solution was used as the extracellular solution in order to avoid current amplification by calcium activated chloride currents (115 mM NaCl, 2.5 mM KCl, 1.8 mM BaCl2, 10 mM HEPES, 1 μM atropine, pH 7.4). Atropine was included to avoid activation of intrinsic muscarinic receptors. Experiments were performed at room temperature. Isoflurane was prepared from a saturated solution by serial dilution. Concentrations were verified by gas chromatography.
Oocytes were tested at a membrane potential of −60 mV. Bolus application of the agonist +/− indicated antagonist(s) was applied at a rate of 4 ml/min for a 2 second application.
Antagonists were pre-applied for 2 minutes prior to activation. Concentration response curves were made from the percent change in peak current from ACh activation in the presence of antagonist(s), compared to ACh alone. As the ACh concentration at central neuronal nAChRs is unknown, 1 mM ACh (saturating) was used to detect inhibition by isoflurane and mecamylamine experiments with mecamylamine. ACh 2 μM was used to detect potentiation by nicotine. Currents were measured in 5-8 cells for each data point. Clampex 7 (Axon instruments, Foster City, Calif.) was used for data acquisition.
Microcal Origins 5.0 (Microcal, Northampton, Mass.) was used for statistical calculations and graphical presentation. The in vitro data were fit to a modified Hill equation, y=100/(1+(x/IC50)^n), where IC50 is the concentration of drug at which of 50% of the response is inhibited and n is the Hill coefficient.

[3] = system: β2 nicotinic knockout male C57/B16 mice; experiment: HPWL in β2 nicotinic knockout mice; format: in vivo; details: vs wild type controls; 0.28% isoflurane, p<0.001
Excerpt: The subunit composition of the nicotinic receptors responsible for the analgesic effects of nicotinic agonists is controversial. […] Nicotinic antagonists specific for α7 containing nicotinic achetylcholine receptors can be analgesic in some settings (Damaj, 2000). […] The importance of the nicotinic β2 subunit in male C57/B16 mice and their generation matched wild type controls have been tested (a gift from J. P. Changeux, Institute Pasteur).

[4] = system: ^3H-norepinephrine release from female mouse lumbar spinal cord slice; experiment: 3H-norepinephrine release from superfused spinal cord slice; details: isoflurane 0.38%
Excerpt: Spinal Cord Slice Preparation: The spinal cord was dissected from the mouse. Under CO2 narcosis the mouse was decapitated. The spinal column was removed and placed into cold dissection solution where the spinal cord was removed with a dissection microscope. The lumbar section of the cord was isolated and imbedded in a 3% low melting point agar (Fisher Scientific) block made in dissection solution. Transverse 400 micrometer slices were made using a Vibratone VT1000S slicing apparatus (Leica, Whetzlar, Germany). Slicing was performed in ice cold Krebs solution bubbled with 5%CO2/95%O2.
The cord slices were incubated in a solution of 1 ml of Krebs solution and 10 ul of 1-[7,8-^3H] noradrenaline in a closed environment surrounded by Krebs solution bubbled with CO2/O2 for 30 minutes. The slices were transferred into a superfusion and stimulation chamber (Warner Instruments Inc.,) where Krebs solution was allowed to perfuse over them for 30 minutes at a rate of 0.5 ml/min. The superfusion chamber thermostatically temperature controlled at 37° C. The solutions were pumped to the chamber at a constant rate of 0.5 ml/min using a Kwik-Pump 290 (Long). Following a 30 minute period for equilibration, collections were taken every 1-2.5 minutes. Ecolite scintillation fluid (15 ml) was then added to each collection vial. The samples were analyzed for radioactivity (CPM) using a Packard TRI CARB 2100 TR scintillation counter (Meriden, Conn.).
Dissection Krebs Solution (mM) NaCl 125, KCl 2.5, NaHCO3 26, NaH2PO4-H2O1.25, MgCl2 6,CaCl2 1.5, glucose 2.5. Perfusion Krebs Solution (mM) NaCl 125, KCl 2.5, NaHCO3 26, NaH2PO4—H2O 1.25, MgCl2 1,CaCl2 2, glucose 2.5.
After incubation with ^3H-norepinephrine, the cord slices were perfused with buffer for 30 minutes at 0.5 ml/minute. After equilibration, samples containing released ^3H-norepinephrine were collected at 2.5 minute intervals. After determination of baseline release, the slices were stimulated with 1 mM nicotine in the perfusion buffer.

male and female mice = experiment: HPWL by gender, estrus stage, castration, oophorectomy; format: in vivo; details: isoflurane
Method: The ovary and oviduct was tied with a double 3.0 polysorb suture. The fascia was closed with 3.0 polysorb and the skin with 4.0 nylon. The procedure was repeated on the other side. The mouse was injected with buprenophine 1 mg/kg prior to emergence for pain control.
Estrogen can directly modulate nicotinic receptors at micromolar concentrations (Paradiso, 2001; Nakazawa, 2001; and Damaj, 2001). Estrogen receptors are co-localized with both nicotinic and muscarinic receptors (Hosli, 2001). Progesterone is inhibitory at nicotinic acetylcholine receptors (Paradiso, 2001; and Damaj, 2001). HPWL was tested at different phases of the female estrus cycle (FIG. 14). […] Oophorectomy (see methods) was performed on six week old female mice. After allowing two weeks for hormonal depletion, and surgical recovery HPWL was again tested.
Furthermore, testosterone was tested to see if it induced a state resistant to isoflurane hyperalgesia. Male mice were castrated and after two weeks for surgical recovery and hormone depletion, hyperalgesia in response to isoflurane was tested. […] In addition to the classical “female hormones”, female mice also have testosterone that is made by the ovary (Halling, 1989). […] Testosterone levels in females decrease after oophorectomy.

mice = system: mice
Excerpt: Nicotinic acetylcholine receptors are involved in the mechanism of isoflurane hyperalgesia, and nicotinic inhibition could be the initiating event.
How could nicotinic inhibition cause hyperalgesia? Nicotine is thought to exert its analgesic action by increasing the release of norepinephrine, serotonin and acetylcholine onto the relay neurons in the dorsal horn of the spinal cord (Rao, 1996; and Reuter, 2000). Isoflurane might reduce pain threshold by inhibiting nicotinic acetylcholine receptors tonically active in potentiating the release of norepinephrine, serotonin and/or acetylcholine. To test the role of the α-adrenergic system, mice were treated systemically with the adrenergic neurotoxin DSP-4 to deplete norepinephrine levels (Jonsson, 1981). The DSP-4 mice 14 days after treatment were tested for HPWL in the presence of isoflurane alone or isoflurane with nicotine pretreatment (see methods).
To test the role of muscarinic receptors for acetylcholine, mice were treated with the nonspecific muscarinic antagonist, atropine. A cholinergic neurotoxin could not be used for these studies, because removing all cholinergic neurons would have nicotinic in addition to muscarinic effects. Instead, postsynaptic muscarinic blockade was used. ACh causes analgesia, at least in part due to muscarinic stimulation (Chiari, 1999; Smith, 1989; and Lavand'homme, 1999). […] High concentrations of atropine can block nicotinic acetylcholine receptors as well (Zwart, 1997).

T1 sequence (P43681 29-627 limits assumed): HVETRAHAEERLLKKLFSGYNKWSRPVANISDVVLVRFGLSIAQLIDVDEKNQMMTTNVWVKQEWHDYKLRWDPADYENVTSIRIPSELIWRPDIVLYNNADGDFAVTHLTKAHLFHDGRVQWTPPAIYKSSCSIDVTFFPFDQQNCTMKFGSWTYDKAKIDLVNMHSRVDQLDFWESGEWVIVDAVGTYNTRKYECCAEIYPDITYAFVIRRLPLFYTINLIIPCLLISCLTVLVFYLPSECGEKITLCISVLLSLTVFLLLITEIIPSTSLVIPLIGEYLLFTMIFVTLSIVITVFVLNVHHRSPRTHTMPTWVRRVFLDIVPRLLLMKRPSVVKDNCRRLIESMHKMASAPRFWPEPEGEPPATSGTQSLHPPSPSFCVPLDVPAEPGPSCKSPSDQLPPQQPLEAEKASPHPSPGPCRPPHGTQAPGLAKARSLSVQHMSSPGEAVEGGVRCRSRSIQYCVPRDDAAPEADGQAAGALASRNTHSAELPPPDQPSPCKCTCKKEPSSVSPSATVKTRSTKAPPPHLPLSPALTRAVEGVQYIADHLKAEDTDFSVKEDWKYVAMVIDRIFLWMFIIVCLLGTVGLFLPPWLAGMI
T1 sequence (P17787 26-502): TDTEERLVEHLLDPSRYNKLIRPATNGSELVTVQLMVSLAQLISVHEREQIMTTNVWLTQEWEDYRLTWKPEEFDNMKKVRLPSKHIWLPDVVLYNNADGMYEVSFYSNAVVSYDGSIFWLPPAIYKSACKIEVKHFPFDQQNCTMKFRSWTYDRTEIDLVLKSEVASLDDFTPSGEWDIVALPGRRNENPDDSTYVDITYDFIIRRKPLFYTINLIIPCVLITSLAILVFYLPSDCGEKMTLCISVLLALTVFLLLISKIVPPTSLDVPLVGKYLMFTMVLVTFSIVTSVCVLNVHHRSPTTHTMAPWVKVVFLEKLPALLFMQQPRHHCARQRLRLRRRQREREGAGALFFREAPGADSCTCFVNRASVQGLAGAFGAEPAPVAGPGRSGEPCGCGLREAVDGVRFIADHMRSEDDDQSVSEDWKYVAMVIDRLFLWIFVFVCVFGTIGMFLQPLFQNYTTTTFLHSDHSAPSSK

Compound	effect on the analgesic action of nicotine [1]	MAC (female mice; isoflurane in these mice)	LORR (female mice; mean partial pressures bracketing postural response and lack of response to supine placement)	mode of antagonism at heteromeric nAChRs [2]	IC50 ([2]; 1 mM ACh, −60 mV, room temperature, read-out: IC50 for inhibition of α4β2 nAChR) [µM]	hyperalgesic effect of isoflurane in β2 nicotinic knockout mice [3]	basal norepinephrine release [4]	nicotine facilitated norepinephrine release ([4]; 1 mM nicotine)	hyperalgesic response after oophorectomy (male and female mice; female mice two weeks after oophorectomy)	hyperalgesic effect by estrus stage (male and female mice; high estrogen (stages 2 and 3) and high progesterone (stage 5))	hyperalgesic response in male mice (male and female mice; intact males)	hyperalgesic response in castrated males (male and female mice; two weeks after castration)	hyperalgesic effect after norepinephrine depletion (mice; isoflurane, mice 14 days after DSP-4)	isoflurane concentration that caused maximal hyperalgesia (mice; mouse, in vivo) [%]
C[N+](C)(C)CCCCCC[N+](C)(C)C [Hexamethonium]	has no effect on the analgesic action of nicotine	–	–	–	–	–	–	–	–	–	–	–	–	–
FC(F)OC(Cl)C(F)(F)F (centres unmarked) [isoflurane]	–	1.4% and 1.5±0.1%	0.59 +0.2%	non-competitive antagonists	44	clearly reduced in these animals, but not absent; also recorded: Hyperalgesia was reduced	basal norepinephrine release was reduced	no facilitation by nicotine	more pronounced	less hyperalgesic effect during these stages	less than that in females	increased hyperalgesic responses to isoflurane compared to intact males	no hyperalgesic effect at any subanesthetic concentration	0.38
